Results from BindingDB's records for patent US20240293587 (Technische University Munchen, 2024).
Starred links: 1 amine or outer side, 2 acyl side, 3 side chain; linkers in the order of their positions; H or OH if unused. Non-standard residues stand in square brackets, D forms with d. Residues, ends and D or L forms follow the SMILES beside them. Groups on a side chain read outwards from the residue. *: point of attachment. dAla(N-(6-guanidinohexyl)) = C[C@@H](NCCCCCCNC(=N)N)C(=O)O; X1 = C[C@H](C(=O)[*:2])N(CCCCCCNC(=N)NCCCCCCN[*:3])[*:1]; Propanoyl(3-PO3H2) = O=C(CCP(=O)(O)O)*; 2Nal = N[C@@H](Cc1ccc2ccccc2c1)C(=O)O; AEEA = NCCOCCOCC(=O)O; Ahx = NCCCCCC(=O)O

target: C-X-C chemokine receptor type 4 (Homo sapiens, UniProt P61073); assay: Competition Binding Assay
Experimental: (§1) For IC50 determination using Jurkat or Eμ-Myc1080 cells, samples containing 2×10^5 cells (or 4×10^5 cells; exact cell number used in the respective evaluations is given in the results section) in Hank's balanced salt solution (HBSS)/1% Bovine Serum Albumin (BSA) were incubated with 100.000 cpm of the respective radioligand (approx. 0.1 nM) in the presence of increasing concentrations (10−11 to 10−5 M) of the respective peptide of interest (n=3 per concentration). The total sample volume was 250 μL. After incubation at room temperature (RT) for 120 min with gentle agitation (200 mot/min), the tubes were centrifuged (5 min, 450g, Megafuge 1.0, Heraeus Thermo Scientific) and the supernatant was carefully removed. After washing twice with 400 μL of cold HBSS, the amount of cell-bound radioligand was quantified using a […]-counter.[0403]In the case of the adherent C6 glioma cells, cells were harvested using Trypsin/EDTA (0.05 % and 0.02%) in PBS one day prior to the experiment, centrifuged and resuspended with culture medium to a concentration of app. 150.000 cells/mL. The suspension was transferred into PLL-coated twenty-four-well plates (1 mL/well, Greiner, Solingen. Germany) and placed in the incubator overnight. On the day of the experiment, the culture medium was removed and the cells were washed with 250 μL of HBSS before being left to equilibrate in 200 μL of HBSS (1% BSA) at 37° C. for a minimum of 15 min before the experiment. Then, cells were incubated with 100.000 cpm of the respective radioligand (approx. 0.1 nM) in the presence of increasing concentrations (10−11 to 10−5 M) of the respective compound of interest (n=3 per concentration). The total sample volume was 250 μL. After incubation at room temperature (RT) for 120 min, the supernatant was removed and cells were washed twice with 200 μL of cold HBSS. Then, cells were lysed using 250 μL of 1 N NaOH, the lysate was transferred to vials and combined with 250 μL of HBSS used for rinsing the wells. Quantification of the amount of free and bound activity was performed in a […]-counter.

C-X-C chemokine receptor type 4 (Homo sapiens, UniProt P61073), sequence (P61073 whole entry): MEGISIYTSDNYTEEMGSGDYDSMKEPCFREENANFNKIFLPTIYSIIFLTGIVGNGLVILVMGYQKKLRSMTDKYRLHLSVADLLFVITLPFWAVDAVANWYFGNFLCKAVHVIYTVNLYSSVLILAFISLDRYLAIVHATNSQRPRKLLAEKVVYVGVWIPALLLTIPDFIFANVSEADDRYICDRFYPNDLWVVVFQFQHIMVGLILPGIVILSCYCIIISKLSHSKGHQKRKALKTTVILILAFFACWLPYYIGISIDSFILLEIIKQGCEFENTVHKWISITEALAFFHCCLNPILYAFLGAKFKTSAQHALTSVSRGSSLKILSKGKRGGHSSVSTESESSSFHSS

SMILES	IC50
CC(=O)NCCNC(=N)NCCCCCCN1C(=O)[C@@H](Cc2ccc(O)cc2)NC(=O)CNC(=O)[C@H](Cc2ccc3ccccc3c2)NC(=O)[C@H](CCCNC(=N)N)NC(=O)[C@H]1C [US20240293587, Compound P1]	3.1 nM
CC(=O)NCCCNC(=N)NCCCCCCN1C(=O)[C@@H](Cc2ccc(O)cc2)NC(=O)CNC(=O)[C@H](Cc2ccc3ccccc3c2)NC(=O)[C@H](CCCNC(=N)N)NC(=O)[C@H]1C [US20240293587, Compound P2]	1.7 nM
CC(=O)NCCCCCNC(=N)NCCCCCCN1C(=O)[C@@H](Cc2ccc(O)cc2)NC(=O)CNC(=O)[C@H](Cc2ccc3ccccc3c2)NC(=O)[C@H](CCCNC(=N)N)NC(=O)[C@H]1C [US20240293587, Compound P4]	32.1 nM
CC(=O)NCCCCCCNC(=N)NCCCCCCN1C(=O)[C@@H](Cc2ccc(O)cc2)NC(=O)CNC(=O)[C@H](Cc2ccc3ccccc3c2)NC(=O)[C@H](CCCNC(=N)N)NC(=O)[C@H]1C [US20240293587, Compound P5]	9.8 nM
C[C@@H]1C(=O)N[C@@H](CCCNC(=N)N)C(=O)N[C@@H](Cc2ccc3ccccc3c2)C(=O)NCC(=O)N[C@H](Cc2ccc(O)cc2)C(=O)N1CCCCCCNC(=N)NCCCCCCNC(=O)CCCCCNC(=O)CCCCCNC(=O)CCP(=O)(O)O [US20240293587, Compound P5k] (cyclo([2Nal]G[dY][X1]([Ahx-Ahx-Propanoyl(3-PO3H2)])R))	90 nM
C[C@@H]1C(=O)N[C@@H](CCCNC(=N)N)C(=O)N[C@@H](Cc2ccc3ccccc3c2)C(=O)NCC(=O)N[C@H](Cc2ccc(O)cc2)C(=O)N1CCCCCCNC(=N)NCCCCCCNC(=O)COCCOCCNC(=O)COCCOCCNC(=O)CCP(=O)(O)O [US20240293587, Compound P5m] (cyclo([2Nal]G[dY][X1]([AEEA-AEEA-Propanoyl(3-PO3H2)])R))	52 nM
C#CCCCCNC(=N)NCCCCCCN1C(=O)[C@@H](Cc2ccc(O)cc2)NC(=O)CNC(=O)[C@H](Cc2ccc3ccccc3c2)NC(=O)[C@H](CCCNC(=N)N)NC(=O)[C@H]1C [US20240293587, Compound P6]	3.2 nM
CC(=O)NC(=N)NCCCCCCN1C(=O)[C@@H](Cc2ccc(O)cc2)NC(=O)CNC(=O)[C@H](Cc2ccc3ccccc3c2)NC(=O)[C@H](CCCNC(=N)N)NC(=O)[C@H]1C [US20240293587, Compound P7]	2.5 nM
CC(=O)NCC(=O)NC(=N)NCCCCCCN1C(=O)[C@@H](Cc2ccc(O)cc2)NC(=O)CNC(=O)[C@H](Cc2ccc3ccccc3c2)NC(=O)[C@H](CCCNC(=N)N)NC(=O)[C@H]1C [US20240293587, Compound P8]	13.2 nM
CC(=O)NCCCCCC(=O)NC(=N)NCCCCCCN1C(=O)[C@@H](Cc2ccc(O)cc2)NC(=O)CNC(=O)[C@H](Cc2ccc3ccccc3c2)NC(=O)[C@H](CCCNC(=N)N)NC(=O)[C@H]1C [US20240293587, Compound P9]	78.7 nM
C#CCCC(=O)NC(=N)NCCCCCCN1C(=O)[C@@H](Cc2ccc(O)cc2)NC(=O)CNC(=O)[C@H](Cc2ccc3ccccc3c2)NC(=O)[C@H](CCCNC(=N)N)NC(=O)[C@H]1C [US20240293587, Compound P10]	2 nM
CC(=O)N[C@@H](CCCCNC(=O)CSC[C@H]1NC(=O)[C@H](Cc2ccc3ccccc3c2)NC(=O)[C@H](CCCNC(=N)N)NC(=O)[C@@H](C)N(CCCCCCNC(=N)N)C(=O)[C@@H](Cc2ccc(O)cc2)NC1=O)C(N)=O [US20240293587, Compound Pc1]	61 nM
CC(=O)NCCCCCCNC(=O)CSC[C@H]1NC(=O)[C@H](Cc2ccc3ccccc3c2)NC(=O)[C@H](CCCNC(=N)N)NC(=O)[C@@H](C)N(CCCCCCNC(=N)N)C(=O)[C@@H](Cc2ccc(O)cc2)NC1=O [US20240293587, Compound Pc2]	57 nM
CC(=O)NCCCCCCSC[C@H]1NC(=O)[C@H](Cc2ccc3ccccc3c2)NC(=O)[C@H](CCCNC(=N)N)NC(=O)[C@@H](C)N(CCCCCCNC(=N)N)C(=O)[C@@H](Cc2ccc(O)cc2)NC1=O [US20240293587, Compound Pc3]	> 400 nM
CC(=O)NCc1ccc(CNC(=O)CSC[C@H]2NC(=O)[C@H](Cc3ccc4ccccc4c3)NC(=O)[C@H](CCCNC(=N)N)NC(=O)[C@@H](C)N(CCCCCCNC(=N)N)C(=O)[C@@H](Cc3ccc(O)cc3)NC2=O)cc1 [US20240293587, Compound Pc4]	53 nM
CC(=O)NCc1cccc(CNC(=O)CSC[C@H]2NC(=O)[C@H](Cc3ccc4ccccc4c3)NC(=O)[C@H](CCCNC(=N)N)NC(=O)[C@@H](C)N(CCCCCCNC(=N)N)C(=O)[C@@H](Cc3ccc(O)cc3)NC2=O)c1 [US20240293587, Compound Pc5]	14 nM
C[C@@H]1C(=O)N[C@@H](CCCNC(=N)N)C(=O)N[C@@H](Cc2ccc3ccccc3c2)C(=O)N[C@H](CSCC(=O)NCc2cccc(CNC(=O)CN3CCN(CC(=O)O)CCN(CC(=O)O)CCN(CC(=O)O)CC3)c2)C(=O)N[C@H](Cc2ccc(O)cc2)C(=O)N1CCCCCCNC(=N)N [US20240293587, Compound Pc5a]	78 nM
C[C@@H]1C(=O)N[C@@H](CCCNC(=N)N)C(=O)N[C@@H](Cc2ccc3ccccc3c2)C(=O)NCC(=O)N[C@H](Cc2ccc(O)cc2)C(=O)N1CCCCCCNC(=N)N [US20240293587, Compound R] (cyclo([dY][dAla(N-(6-guanidinohexyl))]R[2Nal]G))	0.8 nM

target: C-X-C chemokine receptor type 4 (Mus musculus, UniProt P70658); assay: Competition Binding Assay
Experimental: as §1

C-X-C chemokine receptor type 4 (Mus musculus, UniProt P70658), sequence (P70658 whole entry): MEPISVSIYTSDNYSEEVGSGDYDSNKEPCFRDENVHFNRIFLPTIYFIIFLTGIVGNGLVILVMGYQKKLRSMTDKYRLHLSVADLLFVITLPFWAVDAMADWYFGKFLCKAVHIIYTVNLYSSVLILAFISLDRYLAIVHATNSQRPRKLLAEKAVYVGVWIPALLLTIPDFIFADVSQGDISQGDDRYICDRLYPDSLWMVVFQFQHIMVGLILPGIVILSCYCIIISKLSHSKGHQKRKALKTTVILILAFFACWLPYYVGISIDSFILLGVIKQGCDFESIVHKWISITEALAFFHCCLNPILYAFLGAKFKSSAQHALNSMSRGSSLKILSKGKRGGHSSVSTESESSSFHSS

SMILES	IC50
C#CCCCCNC(=N)NCCCCCCN1C(=O)[C@@H](Cc2ccc(O)cc2)NC(=O)CNC(=O)[C@H](Cc2ccc3ccccc3c2)NC(=O)[C@H](CCCNC(=N)N)NC(=O)[C@H]1C [US20240293587, Compound P6]	6.2 nM
CC(=O)NC(=N)NCCCCCCN1C(=O)[C@@H](Cc2ccc(O)cc2)NC(=O)CNC(=O)[C@H](Cc2ccc3ccccc3c2)NC(=O)[C@H](CCCNC(=N)N)NC(=O)[C@H]1C [US20240293587, Compound P7]	1.6 nM
C#CCCC(=O)NC(=N)NCCCCCCN1C(=O)[C@@H](Cc2ccc(O)cc2)NC(=O)CNC(=O)[C@H](Cc2ccc3ccccc3c2)NC(=O)[C@H](CCCNC(=N)N)NC(=O)[C@H]1C [US20240293587, Compound P10]	5.5 nM
